Reference: ChEMBL document CHEMBL1914384, “Design, synthesis, and structure-activity relationship studies of highly potent novel benzoxazinyl-oxazolidinone antibacterial agents” (J Med Chem, 2011)
In brackets after ≈: the same amount, converted by molar mass.

Tests used:
Type in all cases: functional
[1] = tested on: Streptococcus pneumoniae; assay: Antibacterial activity against penicillin-resistant Streptococcus pneumoniae after 16 hrs by agar dilution method
[2] = tested on: Staphylococcus aureus; assay: Antibacterial activity against methicillin-resistant Staphylococcus aureus after 16 hrs by agar dilution method
[3] = tested on: Staphylococcus aureus; assay: Antibacterial activity against Staphylococcus aureus ATCC 29213 after 16 hrs by agar dilution method; conditions: ATCC 29213, 16 h
[4] = tested on: Enterococcus faecalis; assay: Antibacterial activity against Enterococcus faecalis after 16 hrs by agar dilution method
[5] = tested on: Staphylococcus epidermidis; assay: Antibacterial activity against methicillin-resistant Staphylococcus epidermidis after 16 hrs by agar dilution method
[6] = tested on: Enterococcus faecalis; assay: Antibacterial activity against linezolid-resistant Enterococcus faecalis after 16 hrs by agar dilution method
[7] = tested on: Staphylococcus epidermidis; assay: Antibacterial activity against linezolid-resistant Staphylococcus epidermidis after 16 hrs by agar dilution method
[8] = tested on: Enterococcus faecium; assay: Antibacterial activity against linezolid-resistant Enterococcus faecium after 16 hrs by agar dilution method
[9] = tested on: Staphylococcus aureus; assay: Antibacterial activity against linezolid-resistant Staphylococcus aureus after 16 hrs by agar dilution method

Structure (SMILES) | MIC [1] | MIC [2] | MIC [3] | MIC [4] | MIC [5] | MIC [6] | MIC [7] | MIC [8] | MIC [9]
CC(=O)NC[C@@H]1OC(=O)N2c3cc(F)c(-c4ccc(C#N)nc4)cc3OC[C@@H]12 | 2 mg/L (≈ 5.23 µM) | 1 mg/L (≈ 2.62 µM) | 2 mg/L (≈ 5.23 µM) | 2 mg/L (≈ 5.23 µM) | 1 mg/L (≈ 2.62 µM) |  |  |  | 
CC(=O)NC[C@@H]1OC(=O)N2c3ccc(N4CCN(Cc5ccoc5)CC4)cc3OC[C@@H]12 | > 16 mg/L | > 8 mg/L | 16 mg/L (≈ 37.5 µM) | > 16 mg/L | 8 mg/L (≈ 18.8 µM) |  |  |  | 
CC(=O)NC[C@@H]1OC(=O)N2c3ccc(-c4ccc(-c5nnn(C)n5)nc4)cc3OC[C@@H]12 | 0.5 mg/L (≈ 1.19 µM) | 0.5 mg/L (≈ 1.19 µM) | 0.5 mg/L (≈ 1.19 µM) | 1 mg/L (≈ 2.37 µM) | 0.5 mg/L (≈ 1.19 µM) |  |  |  | 
COc1ccc(-c2ccc3c(c2)OC[C@H]2[C@H](CNC(C)=O)OC(=O)N32)cn1 | 0.5 mg/L (≈ 1.35 µM) | 0.5 mg/L (≈ 1.35 µM) | 0.25 mg/L (≈ 0.677 µM) | 0.5 mg/L (≈ 1.35 µM) | 0.5 mg/L (≈ 1.35 µM) | 2 mg/L (≈ 5.41 µM) | 2 mg/L (≈ 5.41 µM) | 1 mg/L (≈ 2.71 µM) | 4 mg/L (≈ 10.8 µM)
CC(=O)NC[C@@H]1OC(=O)N2c3cc(F)c(-c4ccncc4)cc3OC[C@@H]12 | 8 mg/L (≈ 22.4 µM) | 4 mg/L (≈ 11.2 µM) | 2 mg/L (≈ 5.6 µM) | 8 mg/L (≈ 22.4 µM) | 2 mg/L (≈ 5.6 µM) |  |  |  | 
COc1ncc(-c2ccc3c(c2)OC[C@H]2[C@H](CNC(C)=O)OC(=O)N32)c(OC)n1 | 1 mg/L (≈ 2.5 µM) | 1 mg/L (≈ 2.5 µM) | 1 mg/L (≈ 2.5 µM) | 1 mg/L (≈ 2.5 µM) | 1 mg/L (≈ 2.5 µM) |  |  |  | 
CC(=O)NC[C@@H]1OC(=O)N2c3ccc(-c4cccc(N)c4)cc3OC[C@@H]12 | 0.5 mg/L (≈ 1.41 µM) | 1 mg/L (≈ 2.83 µM) | 0.5 mg/L (≈ 1.41 µM) | 1 mg/L (≈ 2.83 µM) | 1 mg/L (≈ 2.83 µM) |  |  |  | 
COC(=O)c1ccc(-c2ccc3c(c2)OC[C@H]2[C@H](CNC(C)=O)OC(=O)N32)cn1 | 1 mg/L (≈ 2.52 µM) | 0.5 mg/L (≈ 1.26 µM) | 0.5 mg/L (≈ 1.26 µM) | 1 mg/L (≈ 2.52 µM) | 0.5 mg/L (≈ 1.26 µM) |  |  |  | 
CC(=O)NC[C@@H]1OC(=O)N2c3ccc(-c4ccncc4)cc3OC[C@@H]12 | 1 mg/L (≈ 2.95 µM) | 0.5 mg/L (≈ 1.47 µM) | 0.5 mg/L (≈ 1.47 µM) | 1 mg/L (≈ 2.95 µM) | 1 mg/L (≈ 2.95 µM) |  |  |  | 
CC(=O)NC[C@@H]1OC(=O)N2c3ccc(-c4ccc(C#N)cc4)cc3OC[C@@H]12 | 0.5 mg/L (≈ 1.38 µM) | 0.5 mg/L (≈ 1.38 µM) | 0.25 mg/L (≈ 0.688 µM) | 1 mg/L (≈ 2.75 µM) | 0.5 mg/L (≈ 1.38 µM) |  |  |  | 
CC(=O)NC[C@@H]1OC(=O)N2c3ccc(N4CCN(Cc5ccccc5[N+](=O)[O-])CC4)cc3OC[C@@H]12 | > 16 mg/L | 8 mg/L (≈ 16.6 µM) | 8 mg/L (≈ 16.6 µM) | > 16 mg/L | 8 mg/L (≈ 16.6 µM) |  |  |  | 
CC(=O)NC[C@@H]1OC(=O)N2c3ccc(-c4ccc(-c5noc(C)n5)nc4)cc3OC[C@@H]12 | 1 mg/L (≈ 2.37 µM) | 0.5 mg/L (≈ 1.19 µM) | 0.25 mg/L (≈ 0.593 µM) | 1 mg/L (≈ 2.37 µM) | 0.5 mg/L (≈ 1.19 µM) |  |  |  | 
CC(=O)NC[C@@H]1OC(=O)N2c3ccc(-c4ccc(-c5nnnn5C)nc4)cc3OC[C@@H]12 | 0.25 mg/L (≈ 0.593 µM) | 0.25 mg/L (≈ 0.593 µM) | 0.5 mg/L (≈ 1.19 µM) | 0.5 mg/L (≈ 1.19 µM) | 0.25 mg/L (≈ 0.593 µM) | 1 mg/L (≈ 2.37 µM) | 2 mg/L (≈ 4.75 µM) | 1 mg/L (≈ 2.37 µM) | 4 mg/L (≈ 9.49 µM)
CC(=O)NC[C@@H]1OC(=O)N2c3ccc(-c4cncnc4)cc3OC[C@@H]12 | 1 mg/L (≈ 2.94 µM) | 0.5 mg/L (≈ 1.47 µM) | 0.25 mg/L (≈ 0.735 µM) | 1 mg/L (≈ 2.94 µM) | 0.5 mg/L (≈ 1.47 µM) |  |  |  | 
CC(=O)NC[C@@H]1OC(=O)N2c3ccc(N4CCN(Cc5ccc([N+](=O)[O-])o5)CC4)cc3OC[C@@H]12 | > 8 mg/L | 4 mg/L (≈ 8.48 µM) | 4 mg/L (≈ 8.48 µM) | > 16 mg/L | 2 mg/L (≈ 4.24 µM) |  |  |  | 
CC(=O)NC[C@@H]1OC(=O)N2c3ccc(-c4ccc(-n5cncn5)nc4)cc3OC[C@@H]12 | 2 mg/L (≈ 4.92 µM) | 1 mg/L (≈ 2.46 µM) | 0.5 mg/L (≈ 1.23 µM) | 2 mg/L (≈ 4.92 µM) | 1 mg/L (≈ 2.46 µM) |  |  |  | 
CC(=O)NC[C@@H]1OC(=O)N2c3ccc(-c4cncc(C(C)=O)c4)cc3OC[C@@H]12 | 1 mg/L (≈ 2.62 µM) | 1 mg/L (≈ 2.62 µM) | 1 mg/L (≈ 2.62 µM) | 1 mg/L (≈ 2.62 µM) | 0.5 mg/L (≈ 1.31 µM) |  |  |  | 
CC(=O)NC[C@@H]1OC(=O)N2c3ccc(N4CCOCC4)cc3OC[C@@H]12 | 8 mg/L (≈ 23 µM) | 4 mg/L (≈ 11.5 µM) | 4 mg/L (≈ 11.5 µM) | 8 mg/L (≈ 23 µM) | 4 mg/L (≈ 11.5 µM) |  |  |  | 
CC(=O)NC[C@@H]1OC(=O)N2c3ccc(-c4cccs4)cc3OC[C@@H]12 | 1 mg/L (≈ 2.9 µM) | 1 mg/L (≈ 2.9 µM) | 1 mg/L (≈ 2.9 µM) | 4 mg/L (≈ 11.6 µM) | 1 mg/L (≈ 2.9 µM) |  |  |  | 
CC(=O)NC[C@@H]1OC(=O)N2c3ccc(-c4ccsc4)cc3OC[C@@H]12 | 2 mg/L (≈ 5.81 µM) | 2 mg/L (≈ 5.81 µM) | 2 mg/L (≈ 5.81 µM) | 4 mg/L (≈ 11.6 µM) | 2 mg/L (≈ 5.81 µM) |  |  |  | 
CC(=O)NC[C@@H]1OC(=O)N2c3ccc(N4CCN(Cc5cccc([N+](=O)[O-])c5)CC4)cc3OC[C@@H]12 | > 16 mg/L | > 16 mg/L | > 16 mg/L | > 16 mg/L | > 16 mg/L |  |  |  | 
CC(=O)NC[C@@H]1OC(=O)N2c3ccc(N4CCN(Cc5ccco5)CC4)cc3OC[C@@H]12 | > 16 mg/L | 16 mg/L (≈ 37.5 µM) | > 16 mg/L | > 16 mg/L | > 16 mg/L |  |  |  | 
